Data published in the supplement of paper PMC5908809.

Columns and labels:
KHYG-1 (IL-2 2.5 ng/mL) [1] = test: drug sensitivity score (DSS) (DSS units); higher = more sensitive; extreme values may be limits of the assay; details: 72 h
DERL-7 (IL-2 2.5 ng/mL) [2] = test: as above; details: 72 h
KAI3 (IL-2 2.5 ng/mL) [3] = test: as above; details: 72 h
[4] = tested on: normal primary NK cells, pool 1 (3 donors), resting (IL-2 0 ng/mL); test: as above; details: 72 h
[5] = tested on: normal primary NK cells, pool 1 (3 donors) (IL-2 2.5 ng/mL); test: as above; details: 72 h
NKL (IL-2 2.5 ng/mL) [6] = test: as above; details: 72 h
[7] = tested on: normal primary NK cells, pool 2 (3 donors) (IL-2 2.5 ng/mL); test: as above; details: 72 h
IMC-1 (IL-2 20 ng/mL) [8] = test: as above; details: 72 h
NK-YS (IL-2 2.5 ng/mL) [9] = test: as above; details: 72 h
NK-92 (IL-2 2.5 ng/mL) [10] = test: as above; details: 72 h
SNK-6 (IL-2 2.5 ng/mL) [11] = test: as above; details: 72 h
YT (IL-2 2.5 ng/mL) [12] = test: as above; details: 72 h
[13] = tested on: normal primary NK cells, pool 3 (3 donors) (IL-2 2.5 ng/mL); test: as above; details: 72 h
[14] = tested on: normal NK cells expanded with K562-aAPC; test: percent inhibition of viability; higher = more inhibition; details: 72 h, IL-2 2.5 ng/mL
Description: (§1)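 Drug sensitivity and resistance testing on K562-aAPC-expanded normal NK cells: 5 concentrations (10-fold steps over a 10,000-fold range), 72 h at 37 °C, viability by CellTiter-Glo normalised to DMSO and benzethonium chloride controls; DSS from the fitted curve.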

KHYG-1 (IL-2 2.5 ng/mL) [15] = test: as above; details: 72 h
DERL-7 (IL-2 2.5 ng/mL) [16] = test: as above; details: 72 h
KAI3 (IL-2 2.5 ng/mL) [17] = test: as above; details: 72 h
[18] = tested on: normal primary NK cells, pool 1 (3 donors), resting (IL-2 0 ng/mL); test: as above; details: 72 h
[19] = tested on: normal primary NK cells, pool 1 (3 donors) (IL-2 2.5 ng/mL); test: as above; details: 72 h
NKL (IL-2 2.5 ng/mL) [20] = test: as above; details: 72 h
[21] = tested on: normal primary NK cells, pool 2 (3 donors) (IL-2 2.5 ng/mL); test: as above; details: 72 h
IMC-1 (IL-2 20 ng/mL) [22] = test: as above; details: 72 h
NK-YS (IL-2 2.5 ng/mL) [23] = test: as above; details: 72 h
NK-92 (IL-2 2.5 ng/mL) [24] = test: as above; details: 72 h
SNK-6 (IL-2 2.5 ng/mL) [25] = test: as above; details: 72 h
YT (IL-2 2.5 ng/mL) [26] = test: as above; details: 72 h
[27] = tested on: normal primary NK cells, pool 3 (3 donors) (IL-2 2.5 ng/mL); test: as above; details: 72 h
[28] = tested on: normal NK cells expanded with K562-aAPC; test: drug sensitivity score (DSS) (DSS units); higher = more sensitive; extreme values may be limits of the assay; details: 72 h; IL-2 2.5 ng/mL
Description: as §1

Cc1ccc(Nc2nccc(N(C)c3ccc4c(C)n(C)nc4c3)n2)cc1S(N)(=O)=O [Pazopanib] (max concentration tested 10000 nM)
Details	drug sensitivity score
DERL-7 (IL-2 2.5 ng/mL) [2]	0
IMC-1 (IL-2 20 ng/mL) [8]	4.34
KAI3 (IL-2 2.5 ng/mL) [3]	1.17
KHYG-1 (IL-2 2.5 ng/mL) [1]	5.18
NK-92 (IL-2 2.5 ng/mL) [10]	5.68
NK-YS (IL-2 2.5 ng/mL) [9]	1.11
NKL (IL-2 2.5 ng/mL) [6]	1.08
SNK-6 (IL-2 2.5 ng/mL) [11]	15
YT (IL-2 2.5 ng/mL) [12]	1.79
[4]	0
[5]	0
[7]	0
[13]	0
[28]	0.02

percent inhibition of viability [%]
Details	1 nM	10 nM	100 nM	1000 nM	10000 nM
DERL-7 (IL-2 2.5 ng/mL) [16]	-0.93	9.12	-0.5	-6.76	-10.4
IMC-1 (IL-2 20 ng/mL) [22]	-4.11	-5.35	2.08	16.6	44.2
KAI3 (IL-2 2.5 ng/mL) [17]	-4.79	-5.2	1.76	10.1	18.6
KHYG-1 (IL-2 2.5 ng/mL) [15]	-2.36	-0.84	4.74	27.1	36.6
NK-92 (IL-2 2.5 ng/mL) [24]	3.54	3.74	11.9	27.6	33.7
NK-YS (IL-2 2.5 ng/mL) [23]	-0.74	0.29	6.42	12.1	15.1
NKL (IL-2 2.5 ng/mL) [20]	-16.9	-17.8	-11.3	13.6	14.8
SNK-6 (IL-2 2.5 ng/mL) [25]	7.81	14.5	36.6	53.3	48.6
YT (IL-2 2.5 ng/mL) [26]	0.54	3.53	8.86	14.9	16.6
[14]	3.24	-2.13	1.77	5.99	11.2
[18]	8.82	5.43	-6.14	-6.41	4.16
[19]	-5.94	2.19	-7.48	-8.52	-1.45
[21]	-17.7	-14.4	-13.5	-2.24	2.28
[27]	-10.1	-9.49	-4.17	-3.69	-2.21

Cn1c(=O)n(-c2ccc(C(C)(C)C#N)cc2)c2c3cc(-c4cnc5ccccc5c4)ccc3ncc21 [Dactolisib] (max concentration tested 1000 nM)
Details	drug sensitivity score
DERL-7 (IL-2 2.5 ng/mL) [2]	19.6
IMC-1 (IL-2 20 ng/mL) [8]	4.51
KAI3 (IL-2 2.5 ng/mL) [3]	15.9
KHYG-1 (IL-2 2.5 ng/mL) [1]	14.2
NK-92 (IL-2 2.5 ng/mL) [10]	15.2
NK-YS (IL-2 2.5 ng/mL) [9]	14.8
NKL (IL-2 2.5 ng/mL) [6]	18.6
SNK-6 (IL-2 2.5 ng/mL) [11]	8.78
YT (IL-2 2.5 ng/mL) [12]	12.7
[4]	11.8
[5]	10.6
[7]	9.12
[13]	4.8
[28]	8.96

percent inhibition of viability [%]
Details	0.1 nM	1 nM	10 nM	100 nM	1000 nM
DERL-7 (IL-2 2.5 ng/mL) [16]	0.52	16	38.7	79.4	84.9
IMC-1 (IL-2 20 ng/mL) [22]	-8.09	0.4	-15.1	8.63	56.9
KAI3 (IL-2 2.5 ng/mL) [17]	-4.23	-6.61	24.4	68.8	75.8
KHYG-1 (IL-2 2.5 ng/mL) [15]	-4.3	-5.69	3.3	74.9	90.8
NK-92 (IL-2 2.5 ng/mL) [24]	-5.17	-0.09	27.1	63.9	70.8
NK-YS (IL-2 2.5 ng/mL) [23]	0.2	-0.12	24.7	63.3	82.3
NKL (IL-2 2.5 ng/mL) [20]	-13.1	-9.35	36.5	69.7	76.1
SNK-6 (IL-2 2.5 ng/mL) [25]	-7.98	-26.8	2.13	46.8	52.4
YT (IL-2 2.5 ng/mL) [26]	-3.01	-5.11	15.7	57.6	80.4
[14]	-4.3	-1.75	17.1	38.2	57.6
[18]	-1.73	24	24.7	38.7	40.6
[19]	-5.56	16	21.4	45	38.5
[21]	-5.46	9.09	17.1	37.6	57.4
[27]	-3.41	6.19	15.4	16.5	43.5
